Test results as given in PMC10952572, “Improved PIEZO1 agonism through 4‐benzoic acid modification of Yoda1” (British Journal of Pharmacology, 2023).

Key:
[1] = test system: HEK‐TREx control (null) cells; test: Manual whole-cell patch clamp on control cells; type: cell-based, human; settings: 10 μM, HEK-TREx cells without PIEZO1 transfection
Procedure: (§1) For manual patch clamp, macroscopic transmembrane ionic currents of mPIEZO1 HEK‐TREx cells (or control HEK‐TREx cells) were recorded using the standard whole‐cell configuration for patch clamp in voltage‐clamp mode. For studies of HEK 293 cells overexpressing PIEZO2 (or control HEK 293 cells), the outside‐out patch configuration was used in voltage‐clamp mode. All recordings were made using an Axopatch 200B amplifier (Axon Instruments, Inc., USA) equipped with Digidata 1550B hosted by a PC running pClamp 10.7 software (Molecular Devices, USA) at room temperature. The cells were maintained during the experiment in an external salt buffer solution (SBS) of the following composition: 135 mM NaCl, 5 mM KCl, 1.5 mM CaCl2, 1.2 mM MgCl2, 8 mM D‐glucose and 10 mM HEPES (titrated to pH 7.4 with NaOH). […] For outside‐out experiments, Na2ATP and Na2GTP were omitted. For whole‐cell experiments, cells were held at 0 mV and current amplitude was monitored by application of ramp voltage protocol from −100 to +100 mV at 10 s intervals. Currents were measured at −100 and +100 mV. Test compounds were applied in the external solution using a bath perfusion system. SBS flow was applied to the cells for 1 min before the addition of compounds. […] Data were analysed and plotted using pClamp 10.7 and Microcal Origin 2018 (Microcal Software, USA).

mPIEZO1 = molecular target: T1, mPIEZO1 (Mus musculus, UniProt E2JF22); test: Manual whole-cell patch clamp on mPIEZO1-TREx cells; type: cell-based; settings: 10 μM, ramp −100 to +100 mV
T1 construct: expressed in transfected cells
T1 sequence (E2JF22 whole entry): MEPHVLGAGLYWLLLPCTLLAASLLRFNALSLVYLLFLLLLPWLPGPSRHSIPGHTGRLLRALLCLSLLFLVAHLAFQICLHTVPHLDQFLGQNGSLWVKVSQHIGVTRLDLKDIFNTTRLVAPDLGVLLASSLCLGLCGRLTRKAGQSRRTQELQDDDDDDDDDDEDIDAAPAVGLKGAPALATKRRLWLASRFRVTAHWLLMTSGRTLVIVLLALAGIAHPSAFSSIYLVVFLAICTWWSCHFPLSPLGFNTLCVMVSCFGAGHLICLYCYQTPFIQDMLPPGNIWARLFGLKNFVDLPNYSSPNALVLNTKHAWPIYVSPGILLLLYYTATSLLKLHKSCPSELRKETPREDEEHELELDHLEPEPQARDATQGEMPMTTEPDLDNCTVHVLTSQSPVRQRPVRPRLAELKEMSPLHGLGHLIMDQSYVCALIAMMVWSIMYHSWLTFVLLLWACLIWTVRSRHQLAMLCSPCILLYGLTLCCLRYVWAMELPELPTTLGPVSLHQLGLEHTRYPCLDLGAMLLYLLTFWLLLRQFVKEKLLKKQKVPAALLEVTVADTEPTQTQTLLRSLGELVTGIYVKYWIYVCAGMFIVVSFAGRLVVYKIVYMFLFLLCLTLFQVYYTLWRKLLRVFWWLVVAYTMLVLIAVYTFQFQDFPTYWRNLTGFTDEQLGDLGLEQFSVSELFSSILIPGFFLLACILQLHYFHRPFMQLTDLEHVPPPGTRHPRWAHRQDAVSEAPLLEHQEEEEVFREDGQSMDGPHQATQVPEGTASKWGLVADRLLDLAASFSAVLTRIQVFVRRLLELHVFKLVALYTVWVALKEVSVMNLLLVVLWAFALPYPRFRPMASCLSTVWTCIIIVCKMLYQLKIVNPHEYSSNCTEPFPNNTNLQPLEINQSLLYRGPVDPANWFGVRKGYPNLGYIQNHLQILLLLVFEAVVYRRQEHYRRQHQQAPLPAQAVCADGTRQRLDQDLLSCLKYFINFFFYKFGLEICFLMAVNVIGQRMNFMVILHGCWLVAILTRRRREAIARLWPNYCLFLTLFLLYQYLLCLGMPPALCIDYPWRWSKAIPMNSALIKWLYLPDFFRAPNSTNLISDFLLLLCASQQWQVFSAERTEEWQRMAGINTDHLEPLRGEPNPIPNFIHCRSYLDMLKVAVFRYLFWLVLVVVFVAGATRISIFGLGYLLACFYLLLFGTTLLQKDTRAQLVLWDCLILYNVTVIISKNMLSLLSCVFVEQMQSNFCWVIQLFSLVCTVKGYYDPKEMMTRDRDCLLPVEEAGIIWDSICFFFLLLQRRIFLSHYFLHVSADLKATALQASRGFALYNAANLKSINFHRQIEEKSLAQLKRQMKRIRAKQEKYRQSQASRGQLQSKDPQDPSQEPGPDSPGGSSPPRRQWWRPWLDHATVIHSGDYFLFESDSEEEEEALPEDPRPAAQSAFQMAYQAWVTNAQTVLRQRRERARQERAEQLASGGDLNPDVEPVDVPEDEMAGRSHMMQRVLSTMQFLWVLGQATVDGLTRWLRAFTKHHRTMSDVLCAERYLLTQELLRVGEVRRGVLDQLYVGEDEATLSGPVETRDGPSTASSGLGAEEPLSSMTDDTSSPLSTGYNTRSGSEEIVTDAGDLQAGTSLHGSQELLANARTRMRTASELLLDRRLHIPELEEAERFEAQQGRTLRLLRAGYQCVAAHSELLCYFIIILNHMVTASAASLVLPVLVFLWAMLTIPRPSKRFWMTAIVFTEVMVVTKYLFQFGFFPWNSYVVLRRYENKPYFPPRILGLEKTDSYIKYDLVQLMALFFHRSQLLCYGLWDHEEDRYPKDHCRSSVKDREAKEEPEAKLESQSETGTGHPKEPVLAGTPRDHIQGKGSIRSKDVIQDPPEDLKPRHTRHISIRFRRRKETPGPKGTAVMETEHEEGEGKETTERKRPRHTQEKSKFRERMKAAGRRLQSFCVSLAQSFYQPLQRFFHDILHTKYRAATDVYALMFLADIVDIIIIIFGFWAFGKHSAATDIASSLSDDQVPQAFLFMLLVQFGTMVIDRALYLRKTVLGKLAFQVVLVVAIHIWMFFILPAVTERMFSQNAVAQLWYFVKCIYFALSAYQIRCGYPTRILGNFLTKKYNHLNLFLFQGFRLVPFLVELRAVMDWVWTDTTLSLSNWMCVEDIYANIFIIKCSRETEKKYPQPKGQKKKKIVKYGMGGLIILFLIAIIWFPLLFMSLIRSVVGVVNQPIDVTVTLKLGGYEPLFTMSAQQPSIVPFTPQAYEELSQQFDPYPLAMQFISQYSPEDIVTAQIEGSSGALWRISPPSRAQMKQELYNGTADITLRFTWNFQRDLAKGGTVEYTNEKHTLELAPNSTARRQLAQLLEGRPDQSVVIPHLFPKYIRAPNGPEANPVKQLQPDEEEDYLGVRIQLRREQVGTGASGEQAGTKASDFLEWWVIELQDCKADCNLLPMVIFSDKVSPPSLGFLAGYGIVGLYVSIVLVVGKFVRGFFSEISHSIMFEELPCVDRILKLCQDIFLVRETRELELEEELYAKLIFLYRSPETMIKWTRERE
Procedure: as §1

[2] = molecular target: T2, human adenosine A2A receptors (Homo sapiens, UniProt P29274); test: Eurofins Hit Profiling Screen PP70: adenosine A2A receptor binding; settings: 5 μM
T2 construct: host or cells: HEK 293 membranes
T2 sequence (P29274 whole entry): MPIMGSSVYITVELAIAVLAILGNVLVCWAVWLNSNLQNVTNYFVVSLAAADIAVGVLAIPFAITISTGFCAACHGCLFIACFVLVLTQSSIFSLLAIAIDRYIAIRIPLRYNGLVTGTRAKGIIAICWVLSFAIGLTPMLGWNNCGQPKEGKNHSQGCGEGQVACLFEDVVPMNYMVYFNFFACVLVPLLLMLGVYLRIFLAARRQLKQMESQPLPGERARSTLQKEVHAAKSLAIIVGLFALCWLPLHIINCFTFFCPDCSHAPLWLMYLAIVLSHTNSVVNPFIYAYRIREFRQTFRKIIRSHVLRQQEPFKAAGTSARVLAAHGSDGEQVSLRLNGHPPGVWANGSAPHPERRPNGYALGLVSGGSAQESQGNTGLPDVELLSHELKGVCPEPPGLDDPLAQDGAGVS
Procedure: These experiments were performed by Eurofins Scientific, and the methods below are from this company's information. Membrane protein/membrane amounts may have varied, and the concentrations used were adjusted as necessary. KC289 was tested at 5 μM.
This assay measured binding of [^3H]CGS‐21680 to human adenosine A2A receptors. HEK 293 cells stably transfected with a plasmid encoding the human adenosine A2A receptor were used to prepare membranes in modified Tris–HCl pH 7.4 buffer using standard techniques. A 15 μg aliquot of membrane was incubated with […] [^3H]CGS‐21680 for 90 min at 25°C. Non‐specific binding was estimated in the presence of 50 μM NECA. Membranes were filtered and washed three times, and the filters were counted to determine [^3H]CGS‐21680 specifically bound.

Structure (SMILES): O=C(O)c1ccc(-c2nnc(SCc3c(Cl)cccc3Cl)s2)cc1 [KC159]
- Whole-cell current in null cells [1]: not null cells
- Whole-cell current (mPIEZO1): increases current

Structure (SMILES): O=C([O-])c1ccc(-c2nnc(SCc3c(Cl)cccc3Cl)s2)cc1.[K+] [KC289]
- Binding to adenosine A2A receptors [2]: modest interaction
